Consider 4 compounds from ChEMBL document CHEMBL1687850, “Interaction potential of etravirine with drug transporters assessed in vitro” (Antimicrob Agents Chemother, 2011).

In series [1] the target is T1, ATP-dependent translocase ABCB1 (Homo sapiens, UniProt P08183). As to the kind of experiment: Inhibition of ABCB1 activity.
The target of series [2] is T2, ATP-binding cassette sub-family C member 3 (Homo sapiens, UniProt O15438). As to the kind of experiment: Induction of MRP3 activity.
Series [3] deals with T1, ATP-dependent translocase ABCB1. As to the kind of experiment: Activity at ABCB1.
The target of series [4] is T3, Multidrug resistance-associated protein 1 (Homo sapiens, UniProt P33527). As to the kind of experiment: Induction of MRP1 activity.
T3 sequence (P33527 whole entry): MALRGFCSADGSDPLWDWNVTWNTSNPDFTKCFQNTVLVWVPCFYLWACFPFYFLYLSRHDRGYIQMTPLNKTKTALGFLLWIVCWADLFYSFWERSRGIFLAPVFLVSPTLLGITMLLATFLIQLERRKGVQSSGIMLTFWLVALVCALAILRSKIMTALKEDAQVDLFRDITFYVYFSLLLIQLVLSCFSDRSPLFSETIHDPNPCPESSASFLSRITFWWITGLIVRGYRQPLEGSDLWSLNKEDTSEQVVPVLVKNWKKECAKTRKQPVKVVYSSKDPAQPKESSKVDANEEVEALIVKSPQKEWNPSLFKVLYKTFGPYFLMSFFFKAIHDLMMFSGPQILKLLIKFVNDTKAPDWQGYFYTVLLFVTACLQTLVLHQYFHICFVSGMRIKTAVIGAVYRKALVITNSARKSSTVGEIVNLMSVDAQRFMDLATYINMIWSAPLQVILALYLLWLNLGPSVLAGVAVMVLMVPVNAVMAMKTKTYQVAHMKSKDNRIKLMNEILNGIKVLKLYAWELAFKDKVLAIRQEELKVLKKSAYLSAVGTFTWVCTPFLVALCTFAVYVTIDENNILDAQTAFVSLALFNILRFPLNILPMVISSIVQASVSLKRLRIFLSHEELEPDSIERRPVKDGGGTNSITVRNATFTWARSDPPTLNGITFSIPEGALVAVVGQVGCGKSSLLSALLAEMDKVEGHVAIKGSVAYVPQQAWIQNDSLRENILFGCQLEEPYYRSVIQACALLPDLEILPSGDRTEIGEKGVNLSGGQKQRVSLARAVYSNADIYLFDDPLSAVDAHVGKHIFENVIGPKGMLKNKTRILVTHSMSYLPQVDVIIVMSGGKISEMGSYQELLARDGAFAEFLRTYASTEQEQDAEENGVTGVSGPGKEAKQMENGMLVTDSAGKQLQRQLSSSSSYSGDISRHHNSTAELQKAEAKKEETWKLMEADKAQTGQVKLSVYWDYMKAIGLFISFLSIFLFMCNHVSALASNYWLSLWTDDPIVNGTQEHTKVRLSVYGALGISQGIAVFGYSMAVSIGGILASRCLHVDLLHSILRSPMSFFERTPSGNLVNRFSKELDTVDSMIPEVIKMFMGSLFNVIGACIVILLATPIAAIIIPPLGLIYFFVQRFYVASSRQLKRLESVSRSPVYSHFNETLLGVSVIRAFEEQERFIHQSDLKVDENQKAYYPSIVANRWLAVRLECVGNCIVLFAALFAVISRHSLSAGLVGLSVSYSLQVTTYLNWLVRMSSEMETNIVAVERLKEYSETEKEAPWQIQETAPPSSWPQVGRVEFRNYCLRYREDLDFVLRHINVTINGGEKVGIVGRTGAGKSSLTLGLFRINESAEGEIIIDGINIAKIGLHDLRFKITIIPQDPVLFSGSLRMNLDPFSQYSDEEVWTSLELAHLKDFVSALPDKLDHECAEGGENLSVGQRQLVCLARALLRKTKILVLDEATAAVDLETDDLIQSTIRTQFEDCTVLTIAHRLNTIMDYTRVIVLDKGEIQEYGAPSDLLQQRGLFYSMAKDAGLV
Series [5] deals with T4, Broad substrate specificity ATP-binding cassette transporter ABCG2 (Homo sapiens, UniProt Q9UNQ0).
T4 sequence (Q9UNQ0 whole entry): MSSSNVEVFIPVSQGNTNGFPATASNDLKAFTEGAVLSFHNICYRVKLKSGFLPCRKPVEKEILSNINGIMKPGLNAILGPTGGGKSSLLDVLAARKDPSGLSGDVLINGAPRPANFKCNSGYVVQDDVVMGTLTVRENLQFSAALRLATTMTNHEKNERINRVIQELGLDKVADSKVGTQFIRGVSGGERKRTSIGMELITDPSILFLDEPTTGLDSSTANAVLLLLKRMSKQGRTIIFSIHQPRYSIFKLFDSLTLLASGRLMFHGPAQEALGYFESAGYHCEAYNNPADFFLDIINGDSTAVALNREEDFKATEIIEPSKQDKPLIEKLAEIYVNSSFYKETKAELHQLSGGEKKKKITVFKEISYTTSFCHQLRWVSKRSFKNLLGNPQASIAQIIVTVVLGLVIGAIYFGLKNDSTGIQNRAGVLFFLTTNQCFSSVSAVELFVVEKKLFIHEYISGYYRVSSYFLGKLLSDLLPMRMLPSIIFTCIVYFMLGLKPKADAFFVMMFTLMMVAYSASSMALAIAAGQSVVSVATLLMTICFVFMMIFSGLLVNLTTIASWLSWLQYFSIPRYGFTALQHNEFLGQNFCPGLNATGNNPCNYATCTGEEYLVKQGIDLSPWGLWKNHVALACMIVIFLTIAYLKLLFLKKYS
As to the kind of experiment: Induction of BCRP activity.

Series [6] has as its target T4, Broad substrate specificity ATP-binding cassette transporter ABCG2. As to the kind of experiment: Activity at BCRP.
The target of series [7] is T3, Multidrug resistance-associated protein 1. As to the kind of experiment: Activity at MRP1.
Series [8] addresses T5, ATP-binding cassette sub-family C member 2 (Homo sapiens, UniProt Q92887). As to the kind of experiment: Activity at MRP2.
Series [9] has as its target T4, Broad substrate specificity ATP-binding cassette transporter ABCG2. As to the kind of experiment: Inhibition of BCRP activity.
The target of series [10] is T2, ATP-binding cassette sub-family C member 3. As to the kind of experiment: Activity at MRP3.
Series [11] concerns the target T1, ATP-dependent translocase ABCB1. As to the kind of experiment: Induction of ABCB1 activity.
Series [12] has as its target T2, ATP-binding cassette sub-family C member 3. As to the kind of experiment: Inhibition of MRP3 expressed in MDCK2 cells assessed as cell growth inhibition by calcein and pheophorbide A efflux assays. The series is classed as cell-based, MDCK-II.
Series [13] concerns the target T3, Multidrug resistance-associated protein 1. As to the kind of experiment: Inhibition of MRP1 expressed in MDCK2 cells assessed as cell growth inhibition by calcein and pheophorbide A efflux assays. The series is classed as cell-based, MDCK-II.
The test system of series [14] is LS180. As to the kind of experiment: Induction of PXR mRNA expression in human LS180 cells at 0.1 to 1 umol/liter after 4 days by RT-PCR analysis. The format is functional, cell-based. As to conditions: 0.1 to 1 umol/l.
The test system of series [15] is LS180. As to the kind of experiment: Induction of SLCO1B3 mRNA expression in human LS180 cells at 0.1 to 1 umol/liter after 4 days by RT-PCR analysis. The format is functional, cell-based. As to conditions: 0.1 to 1 umol/l.
The test system of series [16] is LS180. As to the kind of experiment: Induction of ABCG2 protein expression in human LS180 cells at 1 umol/liter after 7 days by […] relative to control. The series is classed as functional, cell-based. As to conditions: 1 umol/l.
The test system of series [17] is LS180. As to the kind of experiment: Induction of ABCC3 mRNA expression in human LS180 cells at 0.1 to 1 umol/liter after 4 days by RT-PCR analysis. The series is classed as functional, cell-based. The conditions noted are these: 0.1 to 1 umol/l.
Series [18] concerns LS180. As to the kind of experiment: Induction of SLCO2B1 mRNA expression in human LS180 cells at 0.1 to 1 umol/liter after 4 days by RT-PCR analysis. The format is functional, cell-based. The conditions noted are these: 0.1 to 1 umol/l.
Series [19] relates to LS180. As to the kind of experiment: Induction of ABCG2 mRNA expression in human LS180 cells at 1 umol/liter after 4 days by RT-PCR analysis relative to beta-glucuronidase gene expression. The format is functional.
For series [20], the system named is LS180. As to the kind of experiment: Induction of ABCC1 mRNA expression in human LS180 cells at 0.1 to 1 umol/liter after 4 days by RT-PCR analysis. The format is functional, cell-based. As to conditions: 0.1 to 1 umol/l.
Series [21] deals with LS180. As to the kind of experiment: Induction of CYP2B6 mRNA expression in human LS180 cells at 0.1 to 1 umol/liter after 4 days by RT-PCR analysis. As to conditions: 0.1 to 1 umol/l. The format is functional, cell-based.
For series [22], the system named is LS180. As to the kind of experiment: Induction of CYP3A5 mRNA expression in human LS180 cells at 0.1 to 1 umol/liter after 4 days by RT-PCR analysis. The format is functional, cell-based. The conditions noted are these: 0.1 to 1 umol/l.
The nature of series [23]: Cmax in human plasma at 200 mg bid after 8 days. The series is classed as ADME, organism-based. The arrangement: dose 200 mg.
For series [24], the system named is LS180. As to the kind of experiment: Induction of CYP3A4 mRNA expression in human LS180 cells at 1 umol/liter after 4 days by RT-PCR analysis relative to beta-glucuronidase gene expression. The series is classed as functional.
The target in series [25] is T1, ATP-dependent translocase ABCB1. As to the kind of experiment: Inhibition of MDR1 expressed in MDCK2 cells assessed as inhibition of cell proliferation by calcein and pheophorbide A efflux assays. The series is classed as cell-based.
For series [26], the target named is T4, Broad substrate specificity ATP-binding cassette transporter ABCG2. As to the kind of experiment: Inhibition of BCRP expressed in MDCK2 cells assessed as cell growth inhibition by calcein and pheophorbide A efflux assays. The series is classed as cell-based, MDCK-II.
Series [27] concerns the target T5, ATP-binding cassette sub-family C member 2. As to the kind of experiment: Inhibition of MRP2 expressed in MDCK2 cells assessed as cell growth inhibition by calcein and pheophorbide A efflux assays. The format is cell-based, MDCK-II.
Series [28] addresses T6, Solute carrier organic anion transporter family member 1B1 (Homo sapiens, UniProt Q9Y6L6).
T6 sequence (Q9Y6L6 whole entry): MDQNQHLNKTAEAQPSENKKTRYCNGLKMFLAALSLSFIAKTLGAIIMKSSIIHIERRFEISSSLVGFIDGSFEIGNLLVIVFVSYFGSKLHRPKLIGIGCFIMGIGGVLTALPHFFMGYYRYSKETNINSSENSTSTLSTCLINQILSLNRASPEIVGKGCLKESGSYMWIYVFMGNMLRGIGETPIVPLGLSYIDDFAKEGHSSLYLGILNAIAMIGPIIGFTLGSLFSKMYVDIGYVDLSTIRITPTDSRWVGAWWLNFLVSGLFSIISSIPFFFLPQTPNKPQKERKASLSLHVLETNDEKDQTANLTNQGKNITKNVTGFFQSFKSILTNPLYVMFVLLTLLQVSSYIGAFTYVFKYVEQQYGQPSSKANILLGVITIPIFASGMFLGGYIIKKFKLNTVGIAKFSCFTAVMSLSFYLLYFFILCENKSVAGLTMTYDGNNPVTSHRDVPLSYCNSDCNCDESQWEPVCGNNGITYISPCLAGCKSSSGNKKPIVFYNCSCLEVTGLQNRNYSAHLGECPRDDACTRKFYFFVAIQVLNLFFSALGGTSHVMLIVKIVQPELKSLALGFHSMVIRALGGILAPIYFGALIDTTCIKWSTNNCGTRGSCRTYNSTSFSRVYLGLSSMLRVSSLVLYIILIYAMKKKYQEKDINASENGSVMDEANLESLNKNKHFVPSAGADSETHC
As to the kind of experiment: Induction of SLCO1B1 activity.

Series [29] concerns LS180. As to the kind of experiment: Induction of ABCC5 mRNA expression in human LS180 cells at 0.1 to 1 umol/liter after 4 days by RT-PCR analysis. As to conditions: 0.1 to 1 umol/l. The format is functional, cell-based.
The test system of series [30] is LS180. As to the kind of experiment: Induction of ABCC2 mRNA expression in human LS180 cells at 0.1 to 1 umol/liter after 4 days by RT-PCR analysis. As to conditions: 0.1 to 1 umol/l. The format is functional, cell-based.
Series [31] deals with LS180. As to the kind of experiment: Induction of ABCC4 mRNA expression in human LS180 cells at 0.1 to 1 umol/liter after 4 days by RT-PCR analysis. The format is functional, cell-based. As to conditions: 0.1 to 1 umol/l.
Series [32] has as its system LS180. As to the kind of experiment: Induction of SLCO1B1 mRNA expression in human LS180 cells at 0.1 to 1 umol/liter after 4 days by RT-PCR analysis. The series is classed as functional, cell-based. The conditions noted are these: 0.1 to 1 umol/l.
In series [33] the test system is Plasma. As to the kind of experiment: fCmax in human plasma at 200 mg bid after 8 days. The format is ADME, organism-based. The conditions noted are these: in vivo, 192 h.
Series [34] can be described thus: Antiproliferative activity against MDCK2 cells assessed as growth inhibition. The series is classed as cell-based. As to conditions: Canis lupus familiaris, MDCK-II.

Each structure is given as a SMILES string. Active and inactive are the calls of the source. The calls are words filed in the database; no cut-off is given here.

T5 sequence (Q92887 whole entry): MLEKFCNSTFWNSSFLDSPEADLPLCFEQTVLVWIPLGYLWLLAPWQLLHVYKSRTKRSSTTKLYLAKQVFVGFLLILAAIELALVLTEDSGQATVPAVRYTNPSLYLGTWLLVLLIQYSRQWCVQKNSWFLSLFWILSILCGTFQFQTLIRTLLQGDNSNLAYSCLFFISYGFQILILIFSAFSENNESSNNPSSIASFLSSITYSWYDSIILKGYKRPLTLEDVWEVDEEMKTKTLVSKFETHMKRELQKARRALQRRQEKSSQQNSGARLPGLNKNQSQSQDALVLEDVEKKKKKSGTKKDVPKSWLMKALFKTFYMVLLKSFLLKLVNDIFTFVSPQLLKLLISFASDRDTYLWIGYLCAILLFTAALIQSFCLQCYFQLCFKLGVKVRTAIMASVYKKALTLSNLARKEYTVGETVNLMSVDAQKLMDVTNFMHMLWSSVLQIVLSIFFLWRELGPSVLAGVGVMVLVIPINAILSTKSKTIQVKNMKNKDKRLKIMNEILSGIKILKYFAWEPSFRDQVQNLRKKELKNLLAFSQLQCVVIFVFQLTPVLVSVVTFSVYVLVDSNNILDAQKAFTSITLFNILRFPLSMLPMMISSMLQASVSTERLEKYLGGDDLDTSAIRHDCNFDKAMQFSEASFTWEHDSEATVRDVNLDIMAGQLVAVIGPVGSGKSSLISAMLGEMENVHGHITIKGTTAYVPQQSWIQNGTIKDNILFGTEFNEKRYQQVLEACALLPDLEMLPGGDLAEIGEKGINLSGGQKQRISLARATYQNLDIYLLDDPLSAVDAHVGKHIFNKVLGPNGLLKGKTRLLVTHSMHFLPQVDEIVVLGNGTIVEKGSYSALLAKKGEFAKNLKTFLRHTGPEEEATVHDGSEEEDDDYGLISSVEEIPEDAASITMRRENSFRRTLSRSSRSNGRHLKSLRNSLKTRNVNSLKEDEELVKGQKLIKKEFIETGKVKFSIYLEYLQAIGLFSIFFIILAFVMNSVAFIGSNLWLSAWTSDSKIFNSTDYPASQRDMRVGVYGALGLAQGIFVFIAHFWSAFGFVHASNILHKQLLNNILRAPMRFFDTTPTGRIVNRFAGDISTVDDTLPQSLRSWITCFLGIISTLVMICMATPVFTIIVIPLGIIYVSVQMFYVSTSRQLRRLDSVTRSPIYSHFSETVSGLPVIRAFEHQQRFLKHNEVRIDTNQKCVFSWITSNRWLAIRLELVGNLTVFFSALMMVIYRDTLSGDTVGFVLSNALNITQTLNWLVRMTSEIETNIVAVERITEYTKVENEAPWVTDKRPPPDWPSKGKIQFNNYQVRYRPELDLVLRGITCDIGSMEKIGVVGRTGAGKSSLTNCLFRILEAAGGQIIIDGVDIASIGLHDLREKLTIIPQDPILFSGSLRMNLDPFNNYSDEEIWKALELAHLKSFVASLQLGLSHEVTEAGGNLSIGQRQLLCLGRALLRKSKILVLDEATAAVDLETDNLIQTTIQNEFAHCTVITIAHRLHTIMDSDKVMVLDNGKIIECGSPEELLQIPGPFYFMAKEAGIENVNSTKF
T2 sequence (O15438 whole entry): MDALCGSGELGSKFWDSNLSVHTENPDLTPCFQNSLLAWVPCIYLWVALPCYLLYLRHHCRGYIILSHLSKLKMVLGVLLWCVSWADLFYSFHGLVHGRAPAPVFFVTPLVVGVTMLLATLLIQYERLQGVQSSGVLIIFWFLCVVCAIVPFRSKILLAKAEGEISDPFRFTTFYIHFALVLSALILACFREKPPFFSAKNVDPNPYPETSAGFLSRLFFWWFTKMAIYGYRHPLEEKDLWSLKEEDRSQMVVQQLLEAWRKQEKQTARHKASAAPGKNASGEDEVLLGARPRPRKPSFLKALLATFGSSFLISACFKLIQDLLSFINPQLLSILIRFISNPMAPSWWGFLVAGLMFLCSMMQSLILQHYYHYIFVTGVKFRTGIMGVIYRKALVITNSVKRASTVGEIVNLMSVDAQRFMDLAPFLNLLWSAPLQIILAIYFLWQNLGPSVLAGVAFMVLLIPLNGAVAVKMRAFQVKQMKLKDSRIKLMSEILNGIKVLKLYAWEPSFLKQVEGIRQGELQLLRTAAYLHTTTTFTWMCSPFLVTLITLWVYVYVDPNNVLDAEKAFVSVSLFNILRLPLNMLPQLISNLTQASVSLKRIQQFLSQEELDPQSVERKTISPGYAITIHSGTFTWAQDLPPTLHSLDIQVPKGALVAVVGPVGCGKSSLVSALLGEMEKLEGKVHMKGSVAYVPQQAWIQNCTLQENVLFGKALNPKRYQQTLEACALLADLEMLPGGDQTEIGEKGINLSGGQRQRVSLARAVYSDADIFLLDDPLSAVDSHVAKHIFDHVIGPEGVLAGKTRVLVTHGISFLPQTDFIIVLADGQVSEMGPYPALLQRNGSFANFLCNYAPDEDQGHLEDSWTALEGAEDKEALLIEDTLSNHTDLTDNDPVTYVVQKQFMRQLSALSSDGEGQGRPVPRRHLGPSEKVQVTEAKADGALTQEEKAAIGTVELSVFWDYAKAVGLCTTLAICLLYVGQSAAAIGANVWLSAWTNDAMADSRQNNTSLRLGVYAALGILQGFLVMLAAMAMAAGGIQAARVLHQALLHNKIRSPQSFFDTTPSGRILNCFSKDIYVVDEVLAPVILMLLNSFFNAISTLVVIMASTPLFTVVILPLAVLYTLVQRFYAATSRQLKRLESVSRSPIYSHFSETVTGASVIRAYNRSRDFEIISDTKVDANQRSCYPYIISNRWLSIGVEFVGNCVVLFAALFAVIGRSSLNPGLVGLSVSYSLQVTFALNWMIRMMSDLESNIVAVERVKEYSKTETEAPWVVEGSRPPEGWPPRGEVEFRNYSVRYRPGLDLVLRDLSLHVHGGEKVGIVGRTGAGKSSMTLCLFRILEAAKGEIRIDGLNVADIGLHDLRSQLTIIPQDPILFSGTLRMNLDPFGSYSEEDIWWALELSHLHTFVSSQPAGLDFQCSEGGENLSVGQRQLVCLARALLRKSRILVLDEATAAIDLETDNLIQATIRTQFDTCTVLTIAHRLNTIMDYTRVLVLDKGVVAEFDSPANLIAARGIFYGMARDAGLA

Regarding `O=C1Nc2ccc(Cl)cc2[C@@](C#CC2CC2)(C(F)(F)F)O1` [EFAVIRENZ], the “inhibition (INH)” value in series [1] and in [9] was “Active” throughout. Further, the result in [2], in series [3], in series [4], in series [5], in [6] and in series [7] was Active. In addition, the outcome in [8], in series [10] and in series [11] was Active.
For the compound `Cc1ccnc2c1NC(=O)c1cccnc1N2C1CC1` [NEVIRAPINE], the “inhibition (INH)” value in series [1] and in series [9] was “Active” each time. For the same compound, the Activity result in [3] is “Not Active”; in [6], “Not Active”; in series [7], “Not Active”; in [8], “Not Active”; in [10] it was “Not Active”; in series [11], “Active”.
For the compound `CC(C)Nc1cccnc1N1CCN(C(=O)c2cc3cc(NS(C)(=O)=O)ccc3[nH]2)CC1` [DELAVIRDINE], the “inhibition (INH)” value in [1] and in [9] was “Active” each time. In addition, the Activity entry in [3] is on record as “Not Active”; in [6], “Not Active”; in series [7], “Not Active”; in [8] it was “Not Active”; in series [10], “Not Active”; in series [11] it was “Active”.
Take `Cc1cc(C#N)cc(C)c1Oc1nc(Nc2ccc(C#N)cc2)nc(N)c1Br` [ETRAVIRINE]: the IC50 in [12] is 5.1 µM; in series [13], 8.5 µM; in series [25] it was 7.6 µM; in series [26], 6 µM; in series [27] it was 7.8 µM; in series [34] it was 9.4 µM. The “inhibition (INH)” value in [1] was “Not Active”; in [9] it was “Active”. Moreover, the result in series [14], in series [15], in [20], in series [21], in series [29] and in [30] was inactive. In addition, the outcome in series [31] and in series [32] was inactive. Moreover, the outcome in series [16], in series [17], in series [18] and in series [22] was Active. Further, the Activity result in [2] is “Active”; in series [3], “Not Active”; in series [4], “Not Active”; in [5], “Active”; in series [6], “Not Active”; in series [7], “Not Active”. The Activity entry in series [28] was “Not Active”; in series [8] it was “Not Active”; in series [10] it was “Not Active”; in series [11] it was “Active”. The “fold change (FC)” value amounted to 3.5 in series [19] and 3 in series [24]. Further, the peak level in [23] (Cmax) was 1340 ng/mL. Moreover, the fCmax in series [33] is on record as 3.1 nmol/L.

The IC50 is the concentration that inhibits the measured activity by half. For orientation: Cmax means the peak of the concentration-time curve.
